Source: patent US8466113B2, “4-isopropylphenyl glucitol compounds as SGLT1 inhibitors” (Taisho Pharmaceutical Co., Ltd., priority 2009, dated 2013)

assay: Kidney concentrations after repeated oral administration for 3 days; assay type: in vivo, rat; settings: 3 mg/kg once a day for 3 days, male Sprague-Dawley rats, 48 hours after final administration
Description: (2) Kidney Concentrations of Inventive Compounds After Repeated Oral Administration for 3 Days
SD/IGS rats at 7 weeks of age (male, non-fasting, Charles River Laboratories Japan Inc.) were orally administered once a day for 3 consecutive days with compound 1-2, 5-2, 6-2, 13-2 or 15-2 according to the present invention (3 mg/kg) prepared in a 0.5% aqueous CMC solution. At 48 hours after the final drug administration, the rats were exsanguinated via the postcaval vein under isoflurane anesthesia, and their kidneys were excised after they were confirmed to be euthanized. After the tissue surface was washed with physiological saline, each tissue was measured for its weight and homogenized in 4 volumes of purified water under ice cooling. The drug concentration in each homogenate was determined in the same manner as shown in Test Example 3(1) by LC-MS/MS using compound 11 as an internal standard substance.

Row | Compound | Concentration of compounds in kidney after 3 days continuous oral administration, After 2 days
1 | Cc1cc(/C=C/C(C)(C)C(=O)NC(C)(C)C(=O)NCCN(C)C)ccc1Cc1cc([C@@H]2O[C@H](CO)[C@@H](O)[C@H](O)[C@H]2O)c(O)cc1C(C)C [Example 1-2] | BLQ^# (BLQ means below lower limit of quantification(5 ng/g))
2 | Cc1cc(/C=C/C(C)(C)C(=O)NC(C)(C)C(=O)N2CCC(N(C)C)CC2)ccc1Cc1cc([C@@H]2O[C@H](CO)[C@@H](O)[C@H](O)[C@H]2O)c(O)cc1C(C)C [Example 5-2] | BLQ (BLQ means below lower limit of quantification(5 ng/g))
3 | Cc1cc(/C=C/C(C)(C)C(=O)NC(C)(C)C(=O)NCC(C)(C)N)ccc1Cc1cc([C@@H]2O[C@H](CO)[C@@H](O)[C@H](O)[C@H]2O)c(O)cc1C(C)C [Example 6-2] | BLQ (BLQ means below lower limit of quantification(5 ng/g))
4 | COc1cc(C(C)C)c(Cc2ccc(/C=C/C(C)(C)C(=O)NC(C)(C)C(=O)NCC(C)(C)N)cc2C)cc1[C@@H]1O[C@H](CO)[C@@H](O)[C@H](O)[C@H]1O [Example 13-2] | BLQ (BLQ means below lower limit of quantification(5 ng/g))
5 | COc1cc(C(C)C)c(Cc2ccc(/C=C/C(C)(C)C(=O)NC(C)(C)C(=O)NCCN(C)C)cc2)cc1[C@@H]1O[C@H](CO)[C@@H](O)[C@H](O)[C@H]1O [Example 15-2] | BLQ (BLQ means below lower limit of quantification(5 ng/g))
